Measured values taken from PMC6162288, “On-chip spatiotemporal electrophysiological analysis of human stem cell derived cardiomyocytes enables quantitative assessment of proarrhythmia in drug development” (Scientific Reports, 2018).
Entries after “also recorded” stand apart in the source; their conditions may differ.

Columns and labels:
lined-up hESC-CMs = assay: MEA field potential recording of lined-up hESC-CMs (cFPD, CT, their STVs, ISI, beat rate, arrest); format: cell-based, human
Method: Human embryonic stem cell-derived cardiomyocytes clusters (hES-CMCs) were shipped from Cellectis (hES-CMCTM002, hES cell line SA002, Gothenburg, Sweden)[42],[43], and maintained in Dulbecco’s modified Eagle’s medium (DMEM) supplemented 20% heat-inactivated fetal bovaine serum, 1 mM GlutaMax, 100 U/mL penicillin, 0.1 mg/mL streptomycin, 1% nonessential amino acids and 0.1 mM β-mercaptoethanol (Invitrogen, Carsbad, CA, USA). Dispersed cardiomyocytes were isolated from hES-CMCs by a modification of the methods of Norström et al.[44]–[48]. […] The supernatant was gently aspirated with pipette, and a 5-hold volume of DMEM was added as stop solution. Remaining clusters were treats ed with the above process with several times. The supernatants were collected and centrifuged with 200 × g for 2–3 min at 4 °C. The resulting supernatant including dispersed cells was seeded into agarose microchambers on an MEA chip (MED-P530A; AlphaMED scientific. Co. Ltd., Japan)[40].
The MEA chip surface was prepared as follows. First, the chip surface was coated with collagen type I-C (Nitta Gelatin, Japan). After drying, the chip surface was coated with a 0.1% agarose gel. […] At >30 min before the start of experiment, the medium was changed to 2 mL pre-warmed fresh maintenance medium per chip.
Extracellular potential recordings of the lined-up hESC-CMs were performed using the MEA system at a sampling rate of 10 kHz with a low path filter of 2 kHz and high path filter of 1 Hz, and signals were amplified by 100–50,000 using the amplifier. The MEA chip with lined-up hESC-CMs was set in the FP measurement device and placed in a humidified cell culture incubator at 37 °C, 5% CO2. The signals were analyzed by Igor Pro 6.0 (WaveMetrics, Inc., USA) and FlexPro 7.0 (Weisang GmbH, Germany).
We adopted the same drug administration protocol as we examined previously[40] (Fig. 2B). Briefly, the MEA chips of lined-up cells for experiments were selected from the chips having 0.6–1.1 Hz beating frequency and ventricle-like waveforms of FP recordings (see Fig. 1B,D). The MEA chip was placed in the holder of the FP measurement device, and equilibrated for 5 min, and then the control FP waveforms were recorded for 10 min. Subsequently, the drug was applied to the medium at 1% dilution in serially increasing additions, and the FP waveforms were recorded for 10 min at each concentration. Finally, the drug-containing medium was replaced with fresh medium after washing three times. The last 50 beats extracted from 10 min recorded FP waveform data was used for beat rate, FPD (the time from first depolarization peak to broad repolarization peak) and CT (the time difference of the first peaks between separately placed electrodes in lined-upped cell-network) measurement at each concentration (Fig. 2C).
It was normalized (cFPD) to the beating rate of cardiomyocytes using Bazett’s correction formula based on the comparison of the slope of a plot of inter-spike interval and FPD, or corrected FPD by Bazett’s or Fridericia’s formulae (Fig. 3). The short-term variability (STV) of cFPD and CT, which was defined as the mean distance of points perpendicular to the line of identity in the Poincaré plot, was calculated ( STV=∑|D(n+1)−Dn|/(n×2) , where Dn represents the FPD and CT of n-th beating). STVs were last 50 beat data from 5 min extraction of cFPD and CT. To assess the arrhythmogenicity risk of test drugs, the mean values of cFPD, STVcFPD, CT and STVCT of each drug were plotted.

[1] = effective therapeutic plasma concentration; cited from earlier work
[2] = Conc. 10^2 nM (0.1 μM), change vs Ctrl.
[3] = Conc. 10^3 nM (1 μM), change vs Ctrl.
[4] = Conc. 10^−1 nM, change vs Ctrl.
[5] = Conc. 10^4 nM (10 μM), change vs Ctrl.
[6] = Conc. 10^5 nM (100 μM), change vs Ctrl.
[7] = Conc. 10^5 nM (100 μM), change vs Ctrl., listed as lidocaine

Cc1cccc(CCN2CCC(C(=O)c3ccc(NS(C)(=O)=O)cc3)CC2)n1 [E-4031]
STVcFPD (lined-up hESC-CMs; 1 μM): more than doubled | BR (beat rate) (lined-up hESC-CMs; Conc. 1 nM, change vs Ctrl.): 3.9% | Cond. Time (CT) (lined-up hESC-CMs; Conc. 1 nM, change vs Ctrl.): −4.3% | ISI (inter-spike interval) (lined-up hESC-CMs; Conc. 1 nM, change vs Ctrl.): −3.7% | STVCT (lined-up hESC-CMs; Conc. 1 nM, change vs Ctrl.): 19% | STVcFPD (lined-up hESC-CMs; Conc. 1 nM, change vs Ctrl.): −3.6% | cFPD (lined-up hESC-CMs; Conc. 1 nM, change vs Ctrl.): 0.69% | BR (beat rate) (lined-up hESC-CMs; Conc. 10 nM, change vs Ctrl.): 4.5% | Cond. Time (CT) (lined-up hESC-CMs; Conc. 10 nM, change vs Ctrl.): 2.1% | ISI (inter-spike interval) (lined-up hESC-CMs; Conc. 10 nM, change vs Ctrl.): −4.2% | STVCT (lined-up hESC-CMs; Conc. 10 nM, change vs Ctrl.): 5.7% | STVcFPD (lined-up hESC-CMs; Conc. 10 nM, change vs Ctrl.): 17% | cFPD (lined-up hESC-CMs; Conc. 10 nM, change vs Ctrl.): 7.1% | Cond. Time (CT) (lined-up hESC-CMs; [2]): 10% | STVCT (lined-up hESC-CMs; [2]): 43% | STVcFPD (lined-up hESC-CMs; [2]): 94% | cFPD (lined-up hESC-CMs; [2]): 30% | cFPD (lined-up hESC-CMs; Conc. 10^2 nM (0.1 μM), change vs Ctrl., listed as E-4301): 30% | BR (beat rate) (lined-up hESC-CMs; Conc. 10^2 nM, change vs Ctrl.): 5.1% | ISI (inter-spike interval) (lined-up hESC-CMs; Conc. 10^2 nM, change vs Ctrl.): −4.7% | Cond. Time (CT) (lined-up hESC-CMs; [3]): 49% | STVcFPD (lined-up hESC-CMs; [3]): 110% | cFPD (lined-up hESC-CMs; [3]): 47% | cFPD (lined-up hESC-CMs; Conc. 10^3 nM (1 μM), change vs Ctrl., listed as E-4301): 47% | BR (beat rate) (lined-up hESC-CMs; Conc. 10^3 nM, change vs Ctrl.): 5.8% | ISI (inter-spike interval) (lined-up hESC-CMs; Conc. 10^3 nM, change vs Ctrl.): −5.1% | BR (beat rate) (lined-up hESC-CMs; [4]): 2.6% | ISI (inter-spike interval) (lined-up hESC-CMs; [4]): −2.5% | STVCT (lined-up hESC-CMs; [4]): 52% | STVcFPD (lined-up hESC-CMs; [4]): 2.9% | cFPD (lined-up hESC-CMs; [4]): 0.52% | Cond. Time (CT) (lined-up hESC-CMs; Conc. 10^−1 nM, change vs Ctrl., 150 μm inter-electrode distance): 8.9% | CT (mean conduction time) (lined-up hESC-CMs; any tested concentration): did not significantly change; also recorded: did not increase

CCN(CC)CC(=O)Nc1c(C)cccc1C [Lidocaine, lidocaine]
cFPD change (lined-up hESC-CMs; 10–100 μM, P < 0.05): −18% | BR (beat rate) (lined-up hESC-CMs; Conc. 10 nM, change vs Ctrl.): 3.6% | ISI (inter-spike interval) (lined-up hESC-CMs; Conc. 10 nM, change vs Ctrl.): −3.4% | STVCT (lined-up hESC-CMs; Conc. 10 nM, change vs Ctrl.): 46% | STVcFPD (lined-up hESC-CMs; Conc. 10 nM, change vs Ctrl.): 54% | cFPD (lined-up hESC-CMs; Conc. 10 nM, change vs Ctrl.): 9.5% | Cond. Time (CT) (lined-up hESC-CMs; [2]): −6.0% | STVCT (lined-up hESC-CMs; [2]): 43% | STVcFPD (lined-up hESC-CMs; [2]): 38% | cFPD (lined-up hESC-CMs; [2]): 10% | BR (beat rate) (lined-up hESC-CMs; Conc. 10^2 nM, change vs Ctrl.): 4.4% | ISI (inter-spike interval) (lined-up hESC-CMs; Conc. 10^2 nM, change vs Ctrl.): −4.2% | Cond. Time (CT) (lined-up hESC-CMs; [3]): −7.4% | STVCT (lined-up hESC-CMs; [3]): 35% | STVcFPD (lined-up hESC-CMs; [3]): 54% | cFPD (lined-up hESC-CMs; [3]): 9.7% | BR (beat rate) (lined-up hESC-CMs; Conc. 10^3 nM, change vs Ctrl.): 2.8% | ISI (inter-spike interval) (lined-up hESC-CMs; Conc. 10^3 nM, change vs Ctrl.): −2.6% | Cond. Time (CT) (lined-up hESC-CMs; [5]): 4.7% | STVCT (lined-up hESC-CMs; [5]): 134% | STVcFPD (lined-up hESC-CMs; [5]): 345% | cFPD (lined-up hESC-CMs; [5]): −18% | STVCT (lined-up hESC-CMs; Conc. 10^4 nM (10 μM), change vs Ctrl., listed as lidocaine): 134% | BR (beat rate) (lined-up hESC-CMs; Conc. 10^4 nM, change vs Ctrl.): −48% | ISI (inter-spike interval) (lined-up hESC-CMs; Conc. 10^4 nM, change vs Ctrl.): 128% | Cond. Time (CT) (lined-up hESC-CMs; [6]): 22% | STVCT (lined-up hESC-CMs; [6]): 54% | STVcFPD (lined-up hESC-CMs; [6]): 143% | cFPD (lined-up hESC-CMs; [6]): −18% | Cond. Time (CT) (lined-up hESC-CMs; [7]): 22.1% | STVCT (lined-up hESC-CMs; [7]): 54% | BR (beat rate) (lined-up hESC-CMs; Conc. 10^5 nM, change vs Ctrl.): −51% | ISI (inter-spike interval) (lined-up hESC-CMs; Conc. 10^5 nM, change vs Ctrl.): 160% | CT (lined-up hESC-CMs; at equivalent concentrations of Nav1.5 IC50): increased | EPTC [1]: 5,970–25,603[69] nM
